# pEC50: −log10 of the molar value.
# Legend:
# HCV replicon gt1b_con1 = assay: Cell-based HCV replicon assay (TaqMan), genotype 1b (Con1); conditions: Hepatitis C virus, 72 h; replicon 1b (Con1); replicon RNA by TaqMan, day 3
# In short: (§1)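 Replicon cells seeded at 5000 cells/well with compound (10 serial 2-fold dilutions from 250 μM to 1 μM top dose; 0.5% DMSO, 5% FBS) and lysed on day 3. Replicon RNA quantified by multiplex TaqMan RT-PCR (NS5B amplicon, GAPDH control); ΔCT versus concentration fitted to sigmoid dose-response. Chimeras carry patient-isolate NS5A.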
# [1] = test system: HCV chimeric replicon with NS5A of genotype 4a (DQ41878); assay: Cell-based HCV replicon assay (TaqMan), chimeric replicon genotype 4a (DQ41878); conditions: Hepatitis C virus, 72 h, read-out: HCV replicon EC50 4a (DQ41878)
# In short: as §1
structure (smiles),measurement,setting,value
COC(=O)N[C@H](C(=O)N1CC(F)(F)C[C@H]1c1ncc(-c2ccc(-c3ccc4c(ccc5nc([C@@H]6C[Si](C)(C)CN6C(=O)[C@@H](NC(=O)OC)C(C)C)[nH]c54)c3)cc2)[nH]1)C(C)C [Compound 56],pEC50,HCV replicon gt1b_con1,11.52
same,pEC50,[1],10.70

# Source: patent US8609635B2, “Fused tricyclic silyl compounds and methods of use thereof for the treatment of viral diseases” (priority 2010, dated 2013)
